From patent publication US20240132887A1, “PROTEIN ARGININE METHYLTRANSFERASE 9 INHIBITORS AND METHODS OF USE” (City of Hope, priority 2022, published 2024)

Tests used:
[1] = molecular target: T1, PRMT9 (Homo sapiens, UniProt Q6P2P2); experiment: In-house R493 methylation assay (PABPC1 peptide, SAM, dot blot with anti-R493me antibody); type: biochemical; details: for PRMT9 inhibition (catalytic activity screen of top 20 compounds): compounds 10 μM, PRMT9 pretreated 1 h
T1 construct: Myc; made in house
T1 sequence (Q6P2P2 1-845): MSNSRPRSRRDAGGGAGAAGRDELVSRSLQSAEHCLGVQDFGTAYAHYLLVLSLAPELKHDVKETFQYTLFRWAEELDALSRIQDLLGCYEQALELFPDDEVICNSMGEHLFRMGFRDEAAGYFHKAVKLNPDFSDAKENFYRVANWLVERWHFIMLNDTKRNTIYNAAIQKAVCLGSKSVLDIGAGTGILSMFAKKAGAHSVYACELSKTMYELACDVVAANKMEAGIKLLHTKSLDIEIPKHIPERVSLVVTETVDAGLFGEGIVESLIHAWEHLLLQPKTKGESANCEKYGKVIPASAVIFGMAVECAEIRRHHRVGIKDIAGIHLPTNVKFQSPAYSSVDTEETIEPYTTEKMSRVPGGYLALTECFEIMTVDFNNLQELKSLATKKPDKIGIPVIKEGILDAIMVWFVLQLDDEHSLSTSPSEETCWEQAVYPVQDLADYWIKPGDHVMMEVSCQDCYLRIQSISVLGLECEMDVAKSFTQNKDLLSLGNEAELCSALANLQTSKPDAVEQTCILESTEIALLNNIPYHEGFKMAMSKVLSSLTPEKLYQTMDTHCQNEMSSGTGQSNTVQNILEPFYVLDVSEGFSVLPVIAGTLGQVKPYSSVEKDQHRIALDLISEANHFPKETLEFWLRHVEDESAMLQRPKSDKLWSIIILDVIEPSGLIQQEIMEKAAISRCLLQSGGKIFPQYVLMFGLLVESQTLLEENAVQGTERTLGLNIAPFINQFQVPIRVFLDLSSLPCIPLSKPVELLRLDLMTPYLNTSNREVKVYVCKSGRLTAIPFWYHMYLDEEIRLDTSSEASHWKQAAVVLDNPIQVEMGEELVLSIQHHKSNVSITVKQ
Procedure: FIG. 10D: Catalytic activity screen of 9 selected compounds using an in-house R493 methylation assay. PRMT9 protein was pretreated 1 h with indicated compounds using in vitro methylation buffer and then incubated with synthesized unmodified PABPC1 peptides and SAM. […] Catalytic activity inhibition curves are calculated based on intensity of blots normalized to intensity at 37° C. (n=2). […] Data (FIG. 10I) are represented as mean±SD; P values (FIG. 10I) were determined by two-way ANOVA.
FIG. 11B: In-house R493 methylation assay. Synthesized unmodified PABPC1 peptides (aaG491-T507) were incubated 4 h with PRMT9 and SAM at 30° C. Catalytic activity was assessed by dot blot with anti-R493 specific antibody. PRMT9 or unmodified PABPC1 peptide alone served as negative controls, and synthesized R493me PABPC1 peptide as positive. FIG. 11C: Catalytic activity screen of top 20 compounds based on Molm13 viability assay with an in-house R493 methylation assay. PRMT9 protein was pretreated 1 h with indicated compounds (10 μM) and then incubated with synthesized unmodified PABPC1 peptides and SAM. Catalytic activity was assessed by dot blot with an anti-R493me specific antibody.

[2] = tested on: MNCs from AML BM specimens; experiment: Primary AML MNC ex-vivo culture (CyTOF, flow cytometry); type: cell-based, human; details: αPD-1 alone or combined with LD2, 4 days ex-vivo
Procedure: Spanning-tree Progression Analysis of Density-normalized Events (SPADE) clustering was performed to identify cell groups corresponding to immunophenotypic subsets across normal hematopoiesis lineages. The frequency of CD3^+ T cells and CD34^+CD45^dim AML blast cells were noted. […] The relative number of alive CD34^+CD45^dim AML blast cells was assessed by flow cytometry. Data are presented as mean±SD from 3 independent experiments.
After 4 days treatment of vehicle (VEH) or LD2, survival of leukemic (CD34+CD33+) and immune subsets, including T cells (CD3+), B cells (CD19+/CD20+), and DCs (HLA-DR+CD34−CD33−CD3−CD19−CD20−CD14−CD56−), were accessed using Annexin-V staining.
LD2 treatment in total of 4 days ex-vivo culture (under the BM stroma cytokine condition).

| Molecule | PRMT9 inhibition (catalytic activity screen of top 20 compounds) [1] | proportion / frequency of tumor cells [2] | PRMT9 inhibitory effects (PABP1 R493me levels) ([1]; different concentrations of each compound, comparison among the three NSC compounds) |
| --- | --- | --- | --- |
| Cc1ccc2c(c1)c1ccc3c(c1n2C)C(=O)C=CC3=O [NSC661221] | most potent PRMT9 inhibition | – | – |
| αPD-1: anti-PD-1 (pembrolizumab, SIM0010, BioXCell) used in ex-vivo AML cultures | – | marginally decreased the proportion of tumor cells | – |
| Cc1cccc2c1c1ccc3c(c1n2C)C(=O)C=CC3=O [NSC645330] | most potent PRMT9 inhibition | – | – |
| COc1ccc2c(c1)c1ccc3c(c1n2C)C(=O)C=CC3=O [NSC641396] | most potent PRMT9 inhibition | – | most potent PRMT9 inhibitory effects |
